# Laboratory results published in PMC8799717, “Pharmacological targeting PIKfyve and tubulin as an effective treatment strategy for double-hit lymphoma” (Cell Death Discovery, 2022).
# Experiments:
# Test in all cases: biochemical
# Design in all cases: KINOMEscan active-site-directed competition binding panel, 468 kinases, percent of DMSO control at 1 uM
# Conditions in all cases: KINOMEscan binding, percent of DMSO control; read-out: Ctrl%
# PKMYT1 = PKMYT1 (Homo sapiens, UniProt Q99640)
# DRAK2 = biological target: T1, DRAK2 (Homo sapiens, UniProt O94768)
# T1 construct: gene STK17B
# T1 sequence (O94768 whole entry): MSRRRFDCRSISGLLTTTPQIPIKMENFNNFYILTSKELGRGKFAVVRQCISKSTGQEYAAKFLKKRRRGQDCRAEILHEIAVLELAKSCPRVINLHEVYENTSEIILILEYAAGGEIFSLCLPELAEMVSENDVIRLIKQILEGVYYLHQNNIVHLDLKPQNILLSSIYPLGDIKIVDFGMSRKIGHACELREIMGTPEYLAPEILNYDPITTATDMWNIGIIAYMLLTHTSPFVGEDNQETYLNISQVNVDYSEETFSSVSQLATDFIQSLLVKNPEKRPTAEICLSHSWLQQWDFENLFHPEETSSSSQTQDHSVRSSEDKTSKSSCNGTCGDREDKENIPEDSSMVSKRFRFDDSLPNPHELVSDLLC
# MAP3K15 = MAP3K15 (Homo sapiens, UniProt Q6ZN16)
# PIK3CA(C420R) = PIK3CA(C420R) (Homo sapiens, UniProt P42336, C420R)
# PIK3CA(C420R), sequence (P42336 whole entry C420R): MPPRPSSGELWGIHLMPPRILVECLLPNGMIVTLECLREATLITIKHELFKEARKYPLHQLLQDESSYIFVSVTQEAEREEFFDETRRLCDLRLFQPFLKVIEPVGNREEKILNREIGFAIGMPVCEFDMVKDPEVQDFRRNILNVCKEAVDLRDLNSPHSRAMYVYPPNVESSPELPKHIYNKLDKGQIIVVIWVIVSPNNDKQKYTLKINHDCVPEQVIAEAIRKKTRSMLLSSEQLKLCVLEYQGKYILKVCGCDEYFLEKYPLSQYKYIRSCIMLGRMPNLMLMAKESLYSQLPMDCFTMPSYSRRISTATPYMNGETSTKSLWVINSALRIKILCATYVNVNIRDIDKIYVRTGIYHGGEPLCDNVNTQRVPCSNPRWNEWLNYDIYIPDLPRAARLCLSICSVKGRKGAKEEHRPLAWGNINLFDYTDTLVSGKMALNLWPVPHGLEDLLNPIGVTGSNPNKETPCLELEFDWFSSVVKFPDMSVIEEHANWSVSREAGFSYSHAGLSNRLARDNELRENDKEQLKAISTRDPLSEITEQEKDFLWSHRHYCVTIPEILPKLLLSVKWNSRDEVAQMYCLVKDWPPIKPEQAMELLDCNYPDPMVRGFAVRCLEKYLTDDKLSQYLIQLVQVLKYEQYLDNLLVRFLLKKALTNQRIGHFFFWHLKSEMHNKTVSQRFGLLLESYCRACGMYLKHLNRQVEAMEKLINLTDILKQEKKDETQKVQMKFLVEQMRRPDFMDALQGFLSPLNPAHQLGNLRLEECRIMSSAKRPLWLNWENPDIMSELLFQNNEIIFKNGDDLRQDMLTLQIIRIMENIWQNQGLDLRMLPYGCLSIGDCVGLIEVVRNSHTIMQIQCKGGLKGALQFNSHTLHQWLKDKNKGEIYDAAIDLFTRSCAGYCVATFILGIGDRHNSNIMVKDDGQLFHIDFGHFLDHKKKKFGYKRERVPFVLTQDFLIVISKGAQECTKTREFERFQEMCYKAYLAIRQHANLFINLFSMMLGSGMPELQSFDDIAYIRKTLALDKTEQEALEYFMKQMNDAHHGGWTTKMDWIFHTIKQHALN
# RIPK5 = biological target: T2, RIPK5 (Homo sapiens, UniProt Q6XUX3)
# T2 construct: gene DSTYK
# NIM1 = biological target: T3, NIM1 (Homo sapiens, UniProt Q8IY84)
# T3 construct: gene NIM1K
# ULK3 = ULK3 (Homo sapiens, UniProt Q6PHR2)
# ULK3, sequence (Q6PHR2 whole entry): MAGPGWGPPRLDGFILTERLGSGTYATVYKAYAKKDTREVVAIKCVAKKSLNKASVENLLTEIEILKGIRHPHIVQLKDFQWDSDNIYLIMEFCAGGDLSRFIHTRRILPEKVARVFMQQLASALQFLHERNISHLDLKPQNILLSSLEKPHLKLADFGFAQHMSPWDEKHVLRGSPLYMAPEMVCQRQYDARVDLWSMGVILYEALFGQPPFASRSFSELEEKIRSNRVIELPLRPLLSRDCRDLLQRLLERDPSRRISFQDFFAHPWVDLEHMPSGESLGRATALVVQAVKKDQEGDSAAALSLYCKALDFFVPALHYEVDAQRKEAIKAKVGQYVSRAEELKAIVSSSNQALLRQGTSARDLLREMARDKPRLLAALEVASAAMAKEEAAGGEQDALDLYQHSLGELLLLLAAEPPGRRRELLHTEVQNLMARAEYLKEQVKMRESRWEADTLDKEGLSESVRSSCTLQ
# NIK = biological target: T4, NIK (Homo sapiens, UniProt Q99558)
# T4 construct: gene MAP3K14
# FES = FES (Homo sapiens, UniProt P07332)
# LIMK2 = LIMK2 (Homo sapiens, UniProt P53671)
# LIMK2, sequence (P53671 whole entry): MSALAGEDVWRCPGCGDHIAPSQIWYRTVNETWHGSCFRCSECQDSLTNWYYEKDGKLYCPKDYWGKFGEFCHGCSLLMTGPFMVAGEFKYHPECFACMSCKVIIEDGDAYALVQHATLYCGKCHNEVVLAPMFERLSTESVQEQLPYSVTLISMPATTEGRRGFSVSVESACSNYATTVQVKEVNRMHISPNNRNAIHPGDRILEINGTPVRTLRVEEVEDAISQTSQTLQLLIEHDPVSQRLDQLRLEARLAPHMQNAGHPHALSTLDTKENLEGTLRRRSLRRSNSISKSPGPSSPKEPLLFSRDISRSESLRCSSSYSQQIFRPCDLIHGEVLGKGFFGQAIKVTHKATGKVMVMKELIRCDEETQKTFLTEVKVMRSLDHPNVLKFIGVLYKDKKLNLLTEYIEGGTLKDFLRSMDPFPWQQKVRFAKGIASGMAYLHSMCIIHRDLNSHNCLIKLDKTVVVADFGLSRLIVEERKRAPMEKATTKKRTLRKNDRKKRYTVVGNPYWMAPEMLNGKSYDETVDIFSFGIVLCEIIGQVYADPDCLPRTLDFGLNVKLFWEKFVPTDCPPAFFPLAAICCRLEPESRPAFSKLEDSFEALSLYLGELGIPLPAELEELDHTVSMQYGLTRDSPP
# NEK4 = NEK4 (Homo sapiens, UniProt P51957)
# NEK4, sequence (P51957 whole entry): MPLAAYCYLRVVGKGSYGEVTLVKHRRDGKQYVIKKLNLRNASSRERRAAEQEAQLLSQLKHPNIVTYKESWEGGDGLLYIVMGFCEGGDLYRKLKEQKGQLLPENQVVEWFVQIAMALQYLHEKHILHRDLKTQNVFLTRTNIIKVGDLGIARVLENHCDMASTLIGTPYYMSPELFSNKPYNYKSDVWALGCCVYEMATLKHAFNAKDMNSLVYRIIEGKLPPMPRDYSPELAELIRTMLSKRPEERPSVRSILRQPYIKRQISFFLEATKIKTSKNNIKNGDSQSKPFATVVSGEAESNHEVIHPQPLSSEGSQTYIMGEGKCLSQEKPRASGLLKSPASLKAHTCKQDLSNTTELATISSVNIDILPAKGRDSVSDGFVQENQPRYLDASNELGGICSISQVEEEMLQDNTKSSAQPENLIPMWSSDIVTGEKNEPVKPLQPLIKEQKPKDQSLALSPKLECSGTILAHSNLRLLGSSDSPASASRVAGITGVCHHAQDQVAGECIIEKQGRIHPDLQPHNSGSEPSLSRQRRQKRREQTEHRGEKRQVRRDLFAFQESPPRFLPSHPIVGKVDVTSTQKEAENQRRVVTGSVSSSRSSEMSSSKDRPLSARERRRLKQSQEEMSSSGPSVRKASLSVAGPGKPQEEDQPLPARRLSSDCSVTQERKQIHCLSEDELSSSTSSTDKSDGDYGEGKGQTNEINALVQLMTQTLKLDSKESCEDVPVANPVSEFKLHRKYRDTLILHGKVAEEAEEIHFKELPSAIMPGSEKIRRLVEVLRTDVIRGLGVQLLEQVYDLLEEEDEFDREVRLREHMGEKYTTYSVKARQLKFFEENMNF
# HASPIN = HASPIN (Homo sapiens, UniProt Q8TF76)
# HIPK3 = HIPK3 (Homo sapiens, UniProt Q9H422)
# PIK3CA(E545A) = PIK3CA(E545A) (Homo sapiens, UniProt P42336, E545A)
# PIK3CA(E545A), sequence (P42336 whole entry E545A): as the sequence (P42336 whole entry C420R) above, with R420C, E545A counted along it
# ANKK1 = ANKK1 (Homo sapiens, UniProt Q8NFD2)
# ANKK1, sequence (Q8NFD2 whole entry): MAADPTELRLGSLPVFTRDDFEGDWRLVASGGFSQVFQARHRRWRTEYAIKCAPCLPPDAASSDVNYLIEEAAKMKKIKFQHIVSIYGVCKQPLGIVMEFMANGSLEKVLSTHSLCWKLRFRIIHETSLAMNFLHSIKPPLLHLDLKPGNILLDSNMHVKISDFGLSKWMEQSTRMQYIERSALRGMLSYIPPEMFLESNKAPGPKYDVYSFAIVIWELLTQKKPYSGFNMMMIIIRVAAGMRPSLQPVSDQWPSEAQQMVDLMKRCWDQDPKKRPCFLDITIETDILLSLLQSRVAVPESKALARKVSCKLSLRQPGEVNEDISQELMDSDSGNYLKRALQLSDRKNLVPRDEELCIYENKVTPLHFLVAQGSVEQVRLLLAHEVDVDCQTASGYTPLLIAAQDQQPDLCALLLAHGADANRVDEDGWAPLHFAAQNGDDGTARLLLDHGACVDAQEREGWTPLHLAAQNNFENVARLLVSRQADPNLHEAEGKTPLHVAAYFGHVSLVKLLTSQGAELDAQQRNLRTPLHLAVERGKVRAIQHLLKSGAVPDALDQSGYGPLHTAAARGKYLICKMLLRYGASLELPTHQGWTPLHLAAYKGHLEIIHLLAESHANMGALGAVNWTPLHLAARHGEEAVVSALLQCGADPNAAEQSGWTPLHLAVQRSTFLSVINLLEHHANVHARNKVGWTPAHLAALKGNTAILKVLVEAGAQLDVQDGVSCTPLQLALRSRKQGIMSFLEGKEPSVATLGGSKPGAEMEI
# BIKE = biological target: T5, BIKE (Homo sapiens, UniProt Q9NSY1)
# T5 construct: gene BMP2K
# FLT3(R834Q) = FLT3(R834Q) (Homo sapiens, UniProt P36888, R834Q)
# PIK3C2B = PIK3C2B (Homo sapiens, UniProt O00750)
# FER = FER (Homo sapiens, UniProt P16591)
# HUNK = HUNK (Homo sapiens, UniProt P57058)
# CDK4 = CDK4 (Homo sapiens, UniProt P11802)
# CDK4, sequence (P11802 whole entry): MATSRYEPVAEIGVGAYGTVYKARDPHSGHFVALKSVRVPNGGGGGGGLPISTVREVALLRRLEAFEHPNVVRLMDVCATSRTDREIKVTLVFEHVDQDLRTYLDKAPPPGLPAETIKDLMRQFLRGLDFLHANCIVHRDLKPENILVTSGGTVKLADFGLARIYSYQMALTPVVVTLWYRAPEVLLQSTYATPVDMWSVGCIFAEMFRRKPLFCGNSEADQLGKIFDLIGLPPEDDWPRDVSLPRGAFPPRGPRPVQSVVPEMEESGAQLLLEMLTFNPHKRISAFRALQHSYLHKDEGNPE
# p38-alpha = biological target: T6, p38-alpha (Homo sapiens, UniProt Q16539)
# T6 construct: gene MAPK14
# TRKA = biological target: T7, TRKA (Homo sapiens, UniProt P04629)
# T7 construct: gene NTRK1
# SgK110 = biological target: T8, SgK110 (Homo sapiens, UniProt P0C264)
# T8 construct: gene SBK3
# PKMYT1, sequence (Q99640 whole entry): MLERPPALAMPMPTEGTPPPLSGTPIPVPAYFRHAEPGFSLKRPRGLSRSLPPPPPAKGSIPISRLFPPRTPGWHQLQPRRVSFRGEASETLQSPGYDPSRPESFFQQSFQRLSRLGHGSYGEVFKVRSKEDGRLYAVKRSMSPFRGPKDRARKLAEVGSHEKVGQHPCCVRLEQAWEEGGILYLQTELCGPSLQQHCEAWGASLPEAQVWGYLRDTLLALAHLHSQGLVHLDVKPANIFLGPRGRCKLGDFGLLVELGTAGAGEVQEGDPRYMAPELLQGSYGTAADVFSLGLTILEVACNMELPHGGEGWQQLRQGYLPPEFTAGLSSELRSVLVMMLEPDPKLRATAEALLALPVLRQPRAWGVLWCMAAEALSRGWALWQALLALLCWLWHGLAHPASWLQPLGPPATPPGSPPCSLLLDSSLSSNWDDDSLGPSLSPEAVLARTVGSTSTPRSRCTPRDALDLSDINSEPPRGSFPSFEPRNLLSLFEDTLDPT
structure (smiles),measurement,setting,value
Cc1ccc(NC(=O)c2cccc(C(F)(F)F)c2)cc1Nc1cc(-c2cccnc2)nc2[nH]ccc12 [HZX-02-059],remaining binding at 1 µM,PKMYT1,96%
same,remaining binding at 1 µM,DRAK2,88%
same,remaining binding at 1 µM,MAP3K15,53%
same,remaining binding at 1 µM,PIK3CA(C420R),100%
same,remaining binding at 1 µM,RIPK5,100%
same,remaining binding at 1 µM,NIM1,99%
same,remaining binding at 1 µM,ULK3,91%
same,remaining binding at 1 µM,NIK,61%
same,remaining binding at 1 µM,FES,100%
same,remaining binding at 1 µM,LIMK2,95%
same,remaining binding at 1 µM,NEK4,86%
same,remaining binding at 1 µM,HASPIN,100%
same,remaining binding at 1 µM,HIPK3,94%
same,remaining binding at 1 µM,PIK3CA(E545A),88%
same,remaining binding at 1 µM,ANKK1,99%
same,remaining binding at 1 µM,BIKE,94%
same,remaining binding at 1 µM,FLT3(R834Q),100%
same,remaining binding at 1 µM,PIK3C2B,100%
same,remaining binding at 1 µM,FER,77%
same,remaining binding at 1 µM,HUNK,91%
same,remaining binding at 1 µM,CDK4,100%
same,remaining binding at 1 µM,p38-alpha,77%
same,remaining binding at 1 µM,TRKA,100%
same,remaining binding at 1 µM,SgK110,100%
